In BindingDB's records for doi:10.1021/jm00034a008 (Ciba-Geigy, 1994):
pIC50: −log10 of the molar value.

What was measured:
[1] = target: Purine nucleoside phosphorylase (Bos taurus) (UniProt P55859); assay: Inhibition of calf spleen PNP (purine nucleoside phosphorylase) in 1 mM phosphate
[2] = target: Purine nucleoside phosphorylase (Bos taurus) (UniProt P55859); assay: Inhibition of calf spleen PNP (purine nucleoside phosphorylase) in 50 mM phosphate

Chain of Purine nucleoside phosphorylase (Bos taurus) (P55859 whole entry, looked up): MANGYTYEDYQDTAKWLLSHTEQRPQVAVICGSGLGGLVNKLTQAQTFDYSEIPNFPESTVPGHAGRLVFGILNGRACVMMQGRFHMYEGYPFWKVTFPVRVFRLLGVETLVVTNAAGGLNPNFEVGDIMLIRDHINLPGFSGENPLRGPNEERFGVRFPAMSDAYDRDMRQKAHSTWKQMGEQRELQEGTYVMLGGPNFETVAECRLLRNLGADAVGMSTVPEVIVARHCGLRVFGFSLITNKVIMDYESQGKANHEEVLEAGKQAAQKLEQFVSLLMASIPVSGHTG

SMILES | pIC50 [1] | pIC50 [2]
CC(C)(CCn1cnc2c(=O)[nH]c(N)nc21)CCS(N)(=O)=O [5-(2-Amino-6-oxo-1,6-dihydro-purin-9-yl)-3,3-dimethyl-pentane-1-sulfonic acid amide] | 4.00 | < 3.52
CC(C)(CCC#N)CCn1cnc2c(=O)[nH]c(N)nc21 [6-(2-Amino-6-oxo-1,6-dihydro-purin-9-yl)-4,4-dimethyl-hexanenitrile] | 3.59 | < 3.52
CC(C)(CCC(N)=O)CCn1cnc2c(=O)[nH]c(N)nc21 [6-(2-Amino-6-oxo-1,6-dihydro-purin-9-yl)-4,4-dimethyl-hexanoic acid amide] | 3.70 | < 3.52

Compounds with a higher pIC50 [1], results first:

pIC50 [1] | pIC50 [2] | SMILES
4.30 | 4.02 | CC(C)(CCS)CCn1cnc2c(=S)[nH]c(N)nc21 [2-Amino-9-(5-mercapto-3,3-dimethyl-pentyl)-1,9-dihydro-purine-6-thione]
5.10 | 3.54 | CC(C)(CCC(=O)O)CCn1cnc2c(=O)[nH]c(N)nc21 [6-(2-Amino-6-oxo-1,6-dihydro-purin-9-yl)-4,4-dimethyl-hexanoic acid]
6.74 | 5.05 | CC(C)(CCn1cnc2c(=O)[nH]c(N)nc21)CCS(=O)(=O)O [5-(2-Amino-6-oxo-1,6-dihydro-purin-9-yl)-3,3-dimethyl-pentane-1-sulfonic acid]
7.36 | 5.70 | CC(C)(CCn1cnc2c(=O)[nH]c(N)nc21)CCP(=O)(O)O [[5-(2-Amino-6-oxo-1,6-dihydro-purin-9-yl)-3,3-dimethyl-pentyl]-phosphonic acid]
